What all share (type): cell-based, porcine
The test system of test [1] is PAE cells expressing VEGFR2. In words: Chemotaxis assay (modified Boyden chamber), PAE/VEGFR-2 toward VEGF-A. The following applies: VEGF-A as chemo-attractant, absence of serum; for inhibition at 10 µM: Sus scrofa, PAE, 10 μM compound, read-out: Chemotaxis: VEGFR-2 inhibition of cell migration (%) at 10 μM compound concentration. As for the experimental part: (§1) Additionally, the effect of the compounds was tested in this capacity of influencing chemotaxis. The test compounds were tested in porcine aorta endothelial (PAE) cells expressing VEGFR2 and VEGFR3 (PAE/VEGFR-2 and PAE/VEGFR-3). The method used is a modified Boyden chamber assay. The migration of the PAE cells expressing VEGFR2 and VEGFR3 receptors toward VEGF-A and VEGF-C respectively used as chemo-attractant was studied through micropore polycarbonate filter and was scored in the absence of serum. The assay was performed in the presence of compounds at 10 μM.
(§2) In Table 1, data from both the cell shape assay and the chemotaxis assay are shown. Thus, under “Cell Shape: PAE/VEGFR-2 with VEGF antagonist conc. (μM)” and “Cell Shape: PAE/VEGFR-3 with VEGF antagonist conc. (μM)” the concentration of the indicated inventive compound that gave restitution of cell morphology in the cell shape assay is shown. Data under “Chemotaxis: VEGFR-2% inhibition of cell migration” and “Chemotaxis: VEGFR-3% inhibition of cell migration” show the percentage inhibition of PAE cells expressing VEGFR-2 or 3 in the presence of 10 μM of the indicated inventive compound.

In test [2] the test system is PAE cells expressing VEGFR3. In words: Chemotaxis assay (modified Boyden chamber), PAE/VEGFR-3 toward VEGF-C. Conditions: Sus scrofa, 10 μM compound, VEGF-C as chemo-attractant, absence of serum, read-out: Chemotaxis: VEGFR-3 inhibition of cell migration (%) at 10 μM compound concentration. The method, then: as §1, §2
For a further test, the system named is PAE/VEGFR-2 cells. In words: Cell shape assay, PAE/VEGFR-2 cells with VEGF-A. The following applies: VEGF-A induced cell morphology; tested at 10, 50 and 100 μM; No effect = no morphological changes up to 100 μM. As for the experimental part: (§3) One of the used assays comprised a culture of PAE/VEGFR-2 and PAE/VEGFR3 cells. Morphological changes of the cells were recorded microscopically after addition of VEGF-A and VEGF-C respectively, followed by the test compound at a final concentration up to 100 μM. Growth inhibitions of the PAE/VEGFR-2 cells were detected in the presence of the compound of Example 1 according to the invention at 10 μM or lower. Furthermore, the inventive compounds were tested in PAE/VEGFR-3 cells and morphological changes of the cells were recorded microscopically after addition of the VEGF-C, followed by the test compound at a final concentration up to 100 μM. Growth inhibitions of the PAE/VEGFR-3 cells were detected in the presence of several of Examples according to the invention. The compounds were tested at 10, 50 and 100 μM. The effect of the test compounds in Table 1 is expressed as concentration of compound that inhibits the cell morphology induced by VEGF A and VEGF C. No effect means that no morphological changes were seen up to 100 μM compound concentrations.
as §2

A further test concerns PAE/VEGFR-3 cells. In words: Cell shape assay, PAE/VEGFR-3 cells with VEGF-C. Conditions: VEGF-C induced cell morphology, tested at 10, 50 and 100 μM, No effect = no morphological changes up to 100 μM; for minimal effective concentration: Sus scrofa, read-out: Cell Shape: PAE/VEGFR-3 with VEGF antagonist conc. (μM) that gives inhibition. The method, then:
as §3, §2

The source of these data is patent publication US20120065199A1, “SUBSTITUTED QUINOLINES FOR USE AS VEGF INHIBITORS” (CLANOTECH AB, priority 2009, published 2012).

For `CNC(=O)c1ccc2ncc(C(=O)OCN(c3ccccc3)S(C)(=O)=O)c(Nc3ccc(OC)cc3)c2c1` [Example 8, (Methylsulfonyl(phenyl)amino)methyl 4-[(4-methoxyphenyl)amino]-6-(methylcarbamoyl)quinoline-3-carboxylate], the “Chemotaxis: VEGFR-2 inhibition of cell migration (%) at 10 μM compound concentration” value in test [1] is “No effect”. Further, the inhibition at 10 µM in test [2] was 18%. In addition, in the test with PAE/VEGFR-2 cells, the “Cell Shape: PAE/VEGFR-2 with VEGF antagonist conc. (μM) that gives inhibition” value was “No effect”. In addition, the minimal effective concentration in the test with PAE/VEGFR-3 cells was 100 µM.
As for `CNC(=O)c1ccc2ncc(C(=O)OCC(=O)N(C)C)c(Nc3ccc(OC)cc3)c2c1` [Example 5, 2-(dimethylamino)-2-oxoethyl-4-(4-methoxyphenylamino)-6-(methyl-carbamoyl)quinoline-3-carboxylate], the results for the inhibition at 10 µM in test [1] and in test [2] were 2% and 64%, respectively. For the same compound, the “Cell Shape: PAE/VEGFR-2 with VEGF antagonist conc. (μM) that gives inhibition” value with PAE/VEGFR-2 cells is “No effect”. Besides, the minimal effective concentration in the test on PAE/VEGFR-3 cells worked out at 100 µM.
Take `CNC(=O)c1ccc2ncc(C(=O)OCN(C)C(=O)OC)c(Nc3ccc(OC)cc3)c2c1` [Example 2, (Methoxycarbonyl(methyl)amino)methyl 4-(4-methoxyphenylamino)-6-(methylcarbamoyl)quinoline-3-carboxylate]: the inhibition at 10 µM in test [1] is 39%; in test [2], 45%. For the same compound, in the test on PAE/VEGFR-2 cells, the “Cell Shape: PAE/VEGFR-2 with VEGF antagonist conc. (μM) that gives inhibition” value is listed as “No effect”. In addition, in the test with PAE/VEGFR-3 cells, the “Cell Shape: PAE/VEGFR-3 with VEGF antagonist conc. (μM) that gives inhibition” value was “No effect”.
For `CNC(=O)c1ccc2ncc(C(=O)OCN(C)C(=O)c3ccccc3)c(Nc3ccc(OC)cc3)c2c1` [Example 3, (N-methylbenzamido)methyl 4-(4-methoxyphenylamino)-6-(methylcarbamoyl)-quinoline-3-carboxylate], the inhibition at 10 µM in test [1] is 28%; in test [2] it was 36%. Also, the “Cell Shape: PAE/VEGFR-2 with VEGF antagonist conc. (μM) that gives inhibition” value with PAE/VEGFR-2 cells was “No effect”. Moreover, the “Cell Shape: PAE/VEGFR-3 with VEGF antagonist conc. (μM) that gives inhibition” value in the test with PAE/VEGFR-3 cells is “No effect”.
For the compound `CNC(=O)c1ccc2ncc(C(=O)OCCN3CCOCC3)c(Nc3ccc(OC)cc3)c2c1` [Example 11, 2-Morpholinoethyl 4-[(4-methoxyphenyl)amino]-6-(methylcarbamoyl)-quinoline-3-carboxylate], the values for the inhibition at 10 µM in test [1] and in test [2] were 10% and 83%, respectively. The “Cell Shape: PAE/VEGFR-2 with VEGF antagonist conc. (μM) that gives inhibition” value in the test with PAE/VEGFR-2 cells was “No effect”. Moreover, the minimal effective concentration in the test on PAE/VEGFR-3 cells came out at 10 µM.
Take `CNC(=O)c1ccc2ncc(C(=O)OCCn3ccnc3)c(Nc3ccc(F)cc3)c2c1` [Example 13, 4-(4-Fluoro-phenylamino)-6-methylcarbamoyl-quinoline-3-carboxylic acid 2-imidazol-1-yl-ethylester]: in test [1], the “Chemotaxis: VEGFR-2 inhibition of cell migration (%) at 10 μM compound concentration” value was “No effect”. Besides, in test [2], the inhibition at 10 µM was 27%. Further, the “Cell Shape: PAE/VEGFR-2 with VEGF antagonist conc. (μM) that gives inhibition” value in the test with PAE/VEGFR-2 cells is “No effect”. In the test on PAE/VEGFR-3 cells, the minimal effective concentration came out at 50 µM.
`CNC(=O)c1ccc2ncc(C(=O)OCc3oc(=O)oc3C)c(Nc3ccc(OC)cc3)c2c1` [Example 12, (5-Methyl-2-oxo-1,3-dioxol-4-yl)methyl 4-[(4-methoxyphenyl)amino]-6-(methylcarbamoyl)quinoline-3-carboxylate]: the “Chemotaxis: VEGFR-2 inhibition of cell migration (%) at 10 μM compound concentration” value in test [1] is listed as “No effect”. The inhibition at 10 µM in test [2] was 46%. In addition, in the test on PAE/VEGFR-2 cells, the “Cell Shape: PAE/VEGFR-2 with VEGF antagonist conc. (μM) that gives inhibition” value is listed as “No effect”. In addition, the minimal effective concentration in the test on PAE/VEGFR-3 cells amounted to 100 µM.
Regarding `CNC(=O)c1ccc2ncc(C(=O)OC(C)C(=O)O)c(Nc3ccc(OC)cc3)c2c1` (centres unmarked) [Example 9, 2-[4-[(4-Methoxyphenyl)amino]-6-(methylcarbamoyl)quinoline-3-carbonyl]oxypropanoic Acid], the inhibition at 10 µM in test [1] turned out to be 38%; in test [2], 52%. The “Cell Shape: PAE/VEGFR-2 with VEGF antagonist conc. (μM) that gives inhibition” value in the test on PAE/VEGFR-2 cells is “No effect”. Also, in the test with PAE/VEGFR-3 cells, the “Cell Shape: PAE/VEGFR-3 with VEGF antagonist conc. (μM) that gives inhibition” value was “No effect”.
